The record followed here is PubChem BioAssay (NCI).

Holding throughout (test): NCI anticancer screen, dose series, 48 h
The subject of assay [1] is HCT-15 colon.
Assay [2] has as its system T-47D breast.
Assay [3] concerns OVCAR-3 ovarian.
Assay [4] deals with EKVX NSCLC.
Assay [5] relates to OVCAR-5 ovarian.
Assay [6] has as its system MDA-N.
Assay [7] concerns HOP-62 NSCLC.
Assay [8] relates to A498 renal.
For assay [9], the system named is MCF7 breast.

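Following 48 hours of exposure in 96-well plates, responses at five concentrations were used to interpolate endpoints linearly. TGI is the concentration that stops growth completely.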

In the case of `Cc1ccc(O)c(C2=CC3=NNC(=O)C3C(c3cccc(Cl)c3)C2)c1` (stereo unspecified), the TGI in assay [1] is > 100 µM; in assay [2], > 100 µM; in assay [3], 84.1 µM; in assay [4], > 100 µM; in [5], > 100 µM; in assay [6], 92.2 µM. Besides, the TGI is > 100 µM in [7], > 100 µM in assay [8] and 47.1 µM in assay [9].

In the case of `CO/N=C\c1ccc2c(c1)Sc1ccccc1O2`, the TGI in assay [1], in assay [2], in assay [3], in assay [4], in assay [5] and in assay [6] was > 100 µM throughout. Further, the TGI in assay [7], in assay [8] and in assay [9] was > 100 µM throughout.

Consider `C1CCCCC2(CCCCCCCCC3(CCC1)SCCS3)SCCS2`, for which the TGI in assay [1], in assay [2], in [3], in assay [4], in [5] and in assay [6] was > 100 µM in each case. Besides, the TGI in [7], in assay [8] and in [9] was > 100 µM throughout.

As to `O=C1CCC[C@H]2O[C@@H](COC(=O)c3ccccc3)C[C@H]2O1`, the TGI in [1], in [2], in [3], in assay [4], in assay [5] and in [6] was > 100 µM throughout. For the same compound, the TGI in [7], in [8] and in [9] was > 100 µM throughout.

Turning to `COc1ccc2oc(S(=O)(=O)N3CC(CCl)c4ccc(N)cc43)cc2c1` (stereo unspecified), the TGI in [1] was > 23.9 µM; in assay [2], > 100 µM; in [3], > 100 µM; in assay [4] it was > 100 µM; in assay [5], > 100 µM; in assay [6], > 100 µM. In addition, the TGI in [7] was > 100 µM; in assay [8], > 52.1 µM; in assay [9], > 58.6 µM.

As for `CC(=O)O[C@H]1CC[C@@]2(C)C(=CC[C@@H]3[C@@H]2CC[C@]2(C)c4c(n[nH]c4C)C[C@@H]32)C1`, the TGI was found to be 34.2 µM in assay [1]; 25 µM in assay [2]; 26.2 µM in [3]; 34.7 µM in [4]; 31.1 µM in assay [5]; 46.6 µM in assay [6]. For the same compound, the TGI amounted to 37.8 µM in assay [7], 41 µM in assay [8] and 24.2 µM in [9].

Turning to `Cc1nc2ccc(S(=O)(=O)NS(=O)(=O)c3ccc(-c4ccccc4)cc3)cc2c(=O)n1NS(=O)(=O)c1ccc(-c2ccccc2)cc1`, the TGI in [1], in assay [2], in assay [3], in assay [4], in assay [5] and in assay [6] was > 100 µM in each case. Besides, the TGI in assay [7], in assay [8] and in assay [9] was > 100 µM throughout.

As to `COc1ccc(-c2c(-c3ccccc3)c(C)c3ccccn23)cc1`, the TGI in assay [1], in assay [2], in [3], in [4], in [5] and in [6] was > 100 µM throughout. For the same compound, the TGI in assay [7], in assay [8] and in [9] was > 100 µM throughout.

For `C=C1C[C@@H](O)[C@@H](Br)C(C)(C)[C@@]12C=CC(=O)CC2`, the TGI in assay [1] was > 100 µM; in assay [2], > 100 µM; in assay [3], > 100 µM; in [4], > 51.8 µM; in [5] it was 13.7 µM; in [6] it was > 100 µM. Also, the TGI in assay [7], in assay [8] and in assay [9] was > 100 µM in each case.

As to `COC(=O)CCC1(CCC(=O)OC)CCCCCCC(CCC(=O)OC)(CCC(=O)OC)C(=O)C1=O`, the TGI in [1], in [2], in [3], in assay [4], in assay [5] and in assay [6] was > 100 µM throughout. Further, the TGI in [7], in assay [8] and in [9] was > 100 µM throughout.

Turning to `CCOC(=O)C(=CNc1ccc(N(C2=NCC(C)S2)c2ccc(F)c(Cl)c2)cc1)C(=O)OCC` (stereo unspecified), the TGI in [1] worked out at 36.1 µM; in assay [2], 49.5 µM; in assay [3], 51.8 µM; in assay [4] it was 43.3 µM; in assay [5] it was 39 µM; in assay [6], 43.1 µM. Also, the TGI in assay [7] is 52 µM; in assay [8], 41.1 µM; in assay [9], 53.9 µM.

On to `CCC(C)C(N)C(=O)N/N=C\c1c2c(nc3ccccc13)-c1cc3c(c(=O)n1C2)COC(=O)[C@]3(O)CC` (stereo partly specified), for which the TGI is > 100 µM in assay [1]; 0.188 µM in assay [2]; 8.95 µM in assay [3]; > 100 µM in [4]; > 43.5 µM in assay [5]; > 100 µM in [6]. Also, the results for the TGI in [7], in assay [8] and in assay [9] were 1.15 µM, 1.43 µM and 1.61 µM, respectively.

Take `COc1cc(/C=C2\C[C@H]3[C@@H]4CCC5=CC(=O)CC[C@]5(C)[C@H]4CC[C@]3(C)C2=O)cc(OC)c1OC`: the TGI in assay [1] was > 100 µM; in assay [2] it was 9.09 µM; in assay [3], > 49 µM; in assay [4], > 100 µM; in assay [5], > 100 µM; in [6], > 63.6 µM. Moreover, the TGI was > 66.9 µM in [7], > 100 µM in assay [8] and > 100 µM in [9].

As to `O=C(Cn1cc(Br)c(=O)[nH]c1=O)c1ccc(-c2ccccc2)cc1`, the TGI in [1] is 39.7 µM; in assay [2] it was > 100 µM; in assay [3], > 100 µM; in assay [4], > 100 µM; in [5], > 27.5 µM; in [6] it was > 100 µM. The TGI in assay [7] is 39.2 µM; in [8], > 100 µM; in [9], > 100 µM.
